Laboratory results reported in patent US20170035884A1, “AQUEOUS GELLING COMPOSITIONS OF SOLUBLE ACTIVE PHARMACEUTICAL PEPTIDES PROVIDING MODIFIED RELEASE” (Ipsen Pharma S.A.S., priority 2012, published 2017).
Structures can show the parent of a compound that is named as a salt. Where two headings read alike, the source gives them in different places.

Test: Solubility testing of peptide 1 salts in gelling compositions (HPLC after filtration)
Assay type: physicochemical
Description: The solubility of the peptide 1 salts in the gelling compositions of Table 1 was evaluated using HPLC analysis after filtration.

| SMILES | solubility (38% glycerol gelling composition, in 38% glycerol, read-out: solubility) | solubility (in 32% PEG 400) |
| --- | --- | --- |
| CC(=O)NC(CCCNC(=N)N)C(=O)N[C@H]1CSSC[C@@H](C(N)=O)NC(=O)[C@H](Cc2c[nH]c3ccccc23)NC(=O)[C@H](CCCNC(=N)N)NC(=O)[C@@H](Cc2ccccc2)NC(=O)[C@H](Cc2cnc[nH]2)NC(=O)[C@@H](C)NC1=O (stereo partly drawn) [peptide 1 acetate salt, Ac-Arg-c(Cys-D-Ala-His-D-Phe-Arg-Trp-Cys)-NH2] | ≥ 100 mg/mL | ≥ 100 mg/mL |
| CC(=O)NC(CCCNC(=N)N)C(=O)N[C@H]1CSSC[C@@H](C(N)=O)NC(=O)[C@H](Cc2c[nH]c3ccccc23)NC(=O)[C@H](CCCNC(=N)N)NC(=O)[C@@H](Cc2ccccc2)NC(=O)[C@H](Cc2cnc[nH]2)NC(=O)[C@@H](C)NC1=O (stereo partly drawn) [peptide 1 heptanoate salt, Ac-Arg-c(Cys-D-Ala-His-D-Phe-Arg-Trp-Cys)-NH2] | – | 28.1 mg/mL |
